In ChEMBL document CHEMBL3813605, “Jatrophane and ingenane-type diterpenoids from Euphorbia kansui inhibit the LPS-induced NO production in RAW 264.7 cells” (Bioorg Med Chem Lett, 2016):

Experiments:
RAW264.7 [1] = experiment: Antiinflammatory activity in mouse RAW264.7 cells assessed as inhibition of LPS-induced NO production incubated for 24 hrs by Griess method; format: functional, cell-based; settings: RAW264.7, 24 h
RAW264.7 [2] = experiment: Cytotoxicity against mouse RAW264.7 cells assessed as reduction in cell viability by MTT assay; format: cell-based

Structure (SMILES) | IC50 (RAW264.7 [1]) [µM] | Activity (RAW264.7 [2])
CCCCC/C=C\C=C\C(=O)O[C@@H]1C(COC(C)=O)=C[C@@H]2C(=O)[C@]3(C=C(C)[C@H](O)[C@@]13O)[C@H](C)C[C@@H]1[C@H]2C1(C)C | 10.1 | Non-toxic
CCCCC/C=C\C=C\C(=O)O[C@H]1C(C)=C[C@]23C(=O)[C@@H](C=C(C)[C@@H](O)[C@]12O)[C@H]1[C@@H](C[C@H]3C)C1(C)C | 14.1 | Non-toxic
C=C1[C@@H](OC(C)=O)[C@@H](OC(=O)c2ccccc2)[C@@H](OC(C)=O)C(C)(C)[C@H]2O[C@](O)([C@H](C)C2=O)[C@@]2(OC(C)=O)C[C@@](C)(O)[C@H](OC(C)=O)[C@@H]2[C@H]1OC(C)=O | 50.2 | Non-toxic
CCCCC/C=C\C=C\C(=O)O[C@H]1C(C)=C[C@]23C(=O)[C@@H](C=C(COC(C)=O)[C@@H](O)[C@]12O)[C@H]1[C@@H](C[C@H]3C)C1(C)C | 5.1 | Non-toxic
CCCCC/C=C/C=C/C(=O)O[C@H]1C(C)=C[C@]23C(=O)[C@@H](C=C(COC(C)=O)[C@@H](O)[C@]12O)[C@H]1[C@@H](C[C@H]3C)C1(C)C | 0.7 | Non-toxic
CC(=O)OCC1=C[C@@H]2C(=O)[C@]3(C=C(C)[C@H](O)[C@@]3(O)[C@@H]1O)[C@H](C)C[C@@H]1[C@H]2C1(C)C | > 100 | Non-toxic
CC(=O)O[C@H]1C(C)=C[C@]23C(=O)[C@@H](C=C(CO)[C@@H](OC(=O)c4ccccc4)[C@]12O)[C@H]1[C@@H](C[C@H]3C)C1(C)C | 29.5 | Non-toxic
C=C1[C@@H](OC(C)=O)[C@@H](OC(=O)c2ccccc2)[C@@H](OC(C)=O)C(C)(C)[C@H]2O[C@](O)([C@H](C)C2=O)[C@@]2(OC(C)=O)C[C@H](C)[C@H](OC(C)=O)[C@@H]2[C@H]1OC(C)=O | 2.9 | Non-toxic
C=C1[C@H](OC(=O)c2ccccc2)[C@H]2[C@@H](OC(C)=O)[C@](C)(O)[C@@H](OC(C)=O)[C@]2(O)C(=O)[C@@H](C)/C=C/C(C)(C)C(=O)[C@H](OC(C)=O)[C@H]1OC(=O)c1ccccc1 | 16.4 | Non-toxic
CCCCC/C=C/C=C/C(=O)O[C@@H]1C(COC(C)=O)=C[C@@H]2C(=O)[C@]3(C=C(C)[C@H](O)[C@@]13O)[C@H](C)C[C@@H]1[C@H]2C1(C)C | 7.6 | Non-toxic
CC1=C[C@@H]2C(=O)[C@]3(C=C(C)[C@H](O)[C@@]3(O)[C@@H]1OC(=O)c1ccccc1)[C@H](C)C[C@@H]1[C@H]2C1(C)C | 3.1 | Non-toxic
C=C1[C@H](OC(C)=O)[C@@H](OC(=O)c2ccccc2)[C@H](OC(=O)c2cccnc2)C(C)(C)[C@H]2O[C@@H]2[C@@H](C)C(=O)[C@@]2(OC(C)=O)C[C@H](C)[C@H](OC(C)=O)[C@@H]2[C@H]1OC(C)=O | 6.3 | Non-toxic
CC1=C[C@]23C(=O)[C@@H](C=C(CO)[C@@H](O)[C@]2(O)[C@H]1O)[C@H]1[C@@H](C[C@H]3C)C1(C)C [INGENOL] | > 100 | Non-toxic
C=C1[C@@H](OC(C)=O)[C@@H](OC(=O)c2ccccc2)[C@@H](OC(=O)c2cccnc2)C(C)(C)[C@H]2O[C@](O)([C@H](C)C2=O)[C@@]2(OC(C)=O)C[C@H](C)[C@H](OC(C)=O)[C@@H]2[C@H]1OC(C)=O | 22.1 | Non-toxic
CC1=C[C@@H]2C(=O)[C@]3(C=C(C)[C@H](OC(=O)c4ccccc4)[C@@]3(O)[C@@H]1O)[C@H](C)C[C@@H]1[C@H]2C1(C)C | 16 | Non-toxic
C=C1[C@H](OC(=O)c2ccccc2)[C@H]2[C@@H](OC(C)=O)[C@](C)(O)[C@@H](O)[C@]2(OC(C)=O)C(=O)[C@@H](C)/C=C/C(C)(C)C(=O)[C@H](O)[C@H]1OC(=O)c1ccccc1 | 46.5 | Non-toxic
N=C(N)NN [PIMAGEDINE] | 18.7 | –
